# From patent US20070036874A1, “Compositions and methods for controlling glucose and lipid uptake from foods” (priority 2005, published 2007)
# What was measured:
# [1] = system: sodium dependent glucose transporter; conditions: in vitro study; cited from earlier work
# human pancreatic lipase = target: T1, human pancreatic lipase (Homo sapiens, UniProt P16233); assay: lipase inhibition activity (USP units per mg); type: biochemical
# T1 sequence (P16233 17-465): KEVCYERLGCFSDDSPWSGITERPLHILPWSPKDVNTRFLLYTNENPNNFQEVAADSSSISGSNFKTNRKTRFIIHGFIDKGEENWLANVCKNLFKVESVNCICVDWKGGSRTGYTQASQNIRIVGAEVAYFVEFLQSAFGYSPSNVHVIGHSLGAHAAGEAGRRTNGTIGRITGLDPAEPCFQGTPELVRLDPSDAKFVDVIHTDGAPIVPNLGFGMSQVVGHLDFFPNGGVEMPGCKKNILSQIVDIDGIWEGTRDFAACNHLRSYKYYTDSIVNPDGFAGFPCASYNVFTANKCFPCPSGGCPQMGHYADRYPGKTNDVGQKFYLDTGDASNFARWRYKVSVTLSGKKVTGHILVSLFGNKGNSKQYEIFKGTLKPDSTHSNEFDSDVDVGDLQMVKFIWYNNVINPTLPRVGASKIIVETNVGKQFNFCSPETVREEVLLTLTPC
# Experimental: Polymerized catechins are prepared from fermented catechins. Tea catechins are incubated with polyphenol oxidase in a reaction tank for 60 to 120 minutes. The mixture is then extracted with ethyl acetate and dried. In particular embodiments, the extracts have at least 10 USP units human pancreatic lipase inhibition per mg.
# LIPOTAME™, an exemplary polymerized catechin commercially available from NatureGen, has 11.62 USP units/mg of lipase inhibition activity, compared to 80 USP units/mg of lipase inhibition activity found in ORLISTAT®.
SMILES,inhibition of the glucose uptake through incubated intestinal membranes [1],lipase inhibition activity (human pancreatic lipase)
O=C(O[C@@H]1Cc2c(O)cc(O)cc2O[C@@H]1c1ccc(O)c(O)c1)c1cc(O)c(O)c(O)c1 [Epicatechin gallate],up to 50%,–
"CCCCCCCCCCC[C@@H](C[C@@H]1OC(=O)[C@H]1CCCCCC)OC(=O)[C@H](CC(C)C)NC=O [ORLISTAT®, Orlistat]",–,80 USP units/mg
